Experimental data: patent US4645770A, “Agent for treating Parkinson's disease or Parkinsonism” (priority 1985, dated 1987)
Structures can show the parent of a compound that is named as a salt.

What was measured:
[1] = Oral acute toxicity (LD50) in the mouse; settings: in vivo
"naive" rat [2] = test: Spontaneous motor activity: ambulatory movements (exploratory activity), Opto-Varimex 3; format: in vivo; settings: for Contacts broken (exploratory activity/5 min.): first 5 minutes after injection
Protocol: (§1) (A) Spontaneous motor activity in the "naive" rat
(§2) Two aspects of motor function were recorded with a known "Opto-Varimex 3":
(a) "ambulatory" movements in the first 5 minutes after s.c. injection of B-HT 920; this phase of locomotor function corresponds to the so-called "exploratory activity" of rats in a new environment;
(§3) The following doses of B-HT 920 were tested: 0.02, 0.2, 2.0 mg/kg s.c.. As a comparison apomorphine was tested in a dosage of 0.1 mg/kg s.c.

"naive" rat [3] = test: Spontaneous motor activity: non-ambulatory (stereotypical) movements, Opto-Varimex 3; format: in vivo; settings: for Stereotypical movements (Movements/15 min.): from 55 minutes after injection
Protocol: as §1, §2
(b) "non-ambulatory" movements which are made up essentially of stereotypical movements, which began to be recorded 45 minutes after the animals had been put into the recording cage (and 55 minutes after s.c. injection).
as §3

[4] = test system: postsynaptic dopamine (DA) receptors; test: Ipsilateral rotation in the ibotenic acid model; format: in vivo, rat
[5] = test system: denervated post-synaptic DA receptors; test: Contralateral rotation on the 6-OHDA model; format: in vivo, rat
[6] = test system: MPTP Parkinsonism syndrome; test: MPTP model of Parkinson's disease in Rhesus monkeys; format: in vivo
Source text: The irreversible neurological syndrome triggered in monkeys and humans by MPTP largely resembles idiopathic Parkinson's disease in its clinical, pathological, biochemical and pharmacological features (Markey et al., Nature 311, 464 (1984)). The reason for this strong similarity is the fact that MPTP selectively destroys the small group of dopaminergic nerve cells in the substantia nigra of the brain which are also destroyed by degenerative processes in naturally occurring Parkinson's disease. There is even some discussion to the effect that idiopathic Parkinson's disease might be caused by MPTP or a similar chemical compound formed in the organism (Snyder, S. H., Nature 311, 514 (1984)). Possibly as a result of the specific metabolism of MPTP, the clinical features of the MPTP Parkinsonism syndrome have been thusfar only been detected in monkeys and man. The MPTP model produced in Rhesus monkeys is therefore exceptionally suitable for testing the effect of anti-Parkinson's drugs.
Voluntary movements of the hindquarters and extremities could not generally be initiated even by extreme and painful stimulation.
After the intramuscular administration of B-HT 920 (50-100 mcg/kg) the first voluntary movements occurred at a time interval of 5 to 10 minutes, followed in the next 10 to 30 minutes by a gradual, extensive normalization of motor function. The animals were capable of taking food. They maintained thier normal posture within their cages and also behaved normally in terms of vigilance and species-specific behavior. […] There was no sedation.

[7] = test system: presynaptic dopaminergic receptors; settings: Anden et al., 1983; cited from earlier work

Compound: C=CCN1CCc2nc(N)sc2CC1 [Compound A, 2-amino-6-allyl-5,6,7,8-tetrahydro-4H-thiazolo[4,5-d]azepine]
- LD50 [1]: 455 mg/kg

Compound: CN1CCc2cccc3c2[C@H]1Cc1ccc(O)c(O)c1-3 [apomorphine, reference compound]
- Contacts broken (exploratory activity/5 min.) ("naive" rat [2]; 0.1 mg/kg s.c.): 150 /5 min.
- Stereotypical movements (Movements/15 min.) ("naive" rat [3]; 4.0 mg/kg s.c.): 650 Movements/15 min.
- Ipsilateral rotations/duration of activity ([4]; 0.5 mg/kg s.c., up to 3 hours): 265 Ipsilateral rotations/duration of activity
- Ipsilateral rotations/duration of activity ([4]; 1.0 mg/kg s.c., up to 3 hours): 436 Ipsilateral rotations/duration of activity
- Ipsilateral rotations/duration of activity ([4]; 10.0 mg/kg s.c., up to 3 hours): 880 Ipsilateral rotations/duration of activity
- Contralateral rotations up to 6 hours ([5]; 0.05 mg/kg): 557 Contralateral rotations

Compound: C=CCN1CCc2nc(N)sc2CC1 [B-HT 920, 2-amino-6-allyl-5,6,7,8-tetrahydro-4H-thiazole-[4,5-d]azepine dihydrochloride]
- Contacts broken (exploratory activity/5 min.) ("naive" rat [2]; 0.02 mg/kg s.c.): 380 /5 min.
- Contacts broken (exploratory activity/5 min.) ("naive" rat [2]; 0.2 mg/kg s.c.): 150 /5 min.
- Inhibitory effect on the exploratory activity ("naive" rat [2]; 0.2 mg/kg, compared with 0.1 mg/kg of apomorphine): almost maximum
- Contacts broken (exploratory activity/5 min.) ("naive" rat [2]; 2.0 mg/kg s.c.): 130 /5 min.
- Stereotypical movements (Movements/15 min.) ("naive" rat [3]; 0.2 mg/kg s.c.): 370 Movements/15 min.
- Stereotypical movements (Movements/15 min.) ("naive" rat [3]; 2.0 mg/kg s.c.): 310 Movements/15 min.
- Stereotypical movements (Movements/15 min.) ("naive" rat [3]; 4.0 mg/kg s.c.): 340 Movements/15 min.
- Increase in the number of stereotypical movements ("naive" rat [3]; any of the doses tested): did not lead to an increase in the number of stereotypical movements
- Ipsilateral rotations/duration of activity ([4]; 0.2 mg/kg s.c., up to 6 hours): 37 Ipsilateral rotations/duration of activity
- Ipsilateral rotations/duration of activity ([4]; 0.5 mg/kg s.c., up to 6 hours): 54 Ipsilateral rotations/duration of activity
- Ipsilateral rotations/duration of activity ([4]; 1.0 mg/kg s.c., up to 6 hours): 102 Ipsilateral rotations/duration of activity
- Ipsilateral rotations/duration of activity ([4]; 2.0 mg/kg s.c., up to 6 hours): 96 Ipsilateral rotations/duration of activity
- Activity on the normally sensitive DA receptor (in words) ([4]; compared with apomorphine): only a weak activity
- Post-synaptic DA-agonistic activity relative to apomorphine on the normally sensitive DA receptor ([4]; fraction of the activity of apomorphine): about one eighth
- Contralateral rotations up to 6 hours ([5]; 0.02 mg/kg): 168 Contralateral rotations
- Contralateral rotations up to 6 hours ([5]; 0.05 mg/kg): 582 Contralateral rotations
- Contralateral rotations up to 6 hours ([5]; 0.5 mg/kg): 1282 Contralateral rotations
- Contralateral rotations up to 6 hours ([5]; 1.0 mg/kg): 1442 Contralateral rotations
- Activity on denervated receptors ([5]; by contrast with its weak effect on normal DA receptors): exceptionally strong activity on denervated receptors
- Behavior of the animals after administration ([6]; 50-100 mcg/kg intramuscular): The animals were capable of taking food. They maintained thier normal posture within their cages and also behaved normally in terms of vigilance and species-specific behavior
- Residual symptoms recorded ([6]; 50-100 mcg/kg intramuscular): an occasional, transient, slight resting tremor and a reduction in brute strength
- Sedation ([6]; 50-100 mcg/kg intramuscular): no sedation
- Time after which the effect diminished ([6]; 50-100 mcg/kg intramuscular): about 3 hours
- Blood supply to the skin ([6]; 50-100 mcg/kg intramuscular, compared with the state before administration): appeared to be increased
- Effect of fresh administration on clinical pathological symptoms ([6]; after reversion to the Parkinson's symptoms): improvement or substantial removal of the clinical pathological symptoms
- Side effects ([6]; at the dosages used): No side effects were discovered
- Agonist effect on presynaptic dopaminergic receptors [7]: agonist with a selective effect on presynaptic dopaminergic receptors
